The results in this text go back to US20240209028A1, “CNP COMPOUNDS” (priority 2022, published 2024).

Starred links: 1 amine or outer side, 2 acyl side, 3 side chain; linkers in the order of their positions; H or OH if unused. Positions of bridges follow the written chain, without caps; N, C: chain ends. Residues, ends and D or L forms follow the SMILES beside them. *: point of attachment. C18 diacid = O=C(O)CCCCCCCCCCCCCCCCC(=O)*; γGlu = O=C(O)[C@H](CCC(=O)[*:2])N[*:1]; AEEA = NCCOCCOCC(=O)O

The target in the assay is T1, human natriuretic peptide receptor 2 (hNPR2) (Homo sapiens, UniProt P20594).
T1 construct: expressed in transfected cells; host or cells: HEK293 (ATCC CRL-1573), clone 35, co-transfected with pGloSensor-42F
T1 sequence (P20594 23-1047): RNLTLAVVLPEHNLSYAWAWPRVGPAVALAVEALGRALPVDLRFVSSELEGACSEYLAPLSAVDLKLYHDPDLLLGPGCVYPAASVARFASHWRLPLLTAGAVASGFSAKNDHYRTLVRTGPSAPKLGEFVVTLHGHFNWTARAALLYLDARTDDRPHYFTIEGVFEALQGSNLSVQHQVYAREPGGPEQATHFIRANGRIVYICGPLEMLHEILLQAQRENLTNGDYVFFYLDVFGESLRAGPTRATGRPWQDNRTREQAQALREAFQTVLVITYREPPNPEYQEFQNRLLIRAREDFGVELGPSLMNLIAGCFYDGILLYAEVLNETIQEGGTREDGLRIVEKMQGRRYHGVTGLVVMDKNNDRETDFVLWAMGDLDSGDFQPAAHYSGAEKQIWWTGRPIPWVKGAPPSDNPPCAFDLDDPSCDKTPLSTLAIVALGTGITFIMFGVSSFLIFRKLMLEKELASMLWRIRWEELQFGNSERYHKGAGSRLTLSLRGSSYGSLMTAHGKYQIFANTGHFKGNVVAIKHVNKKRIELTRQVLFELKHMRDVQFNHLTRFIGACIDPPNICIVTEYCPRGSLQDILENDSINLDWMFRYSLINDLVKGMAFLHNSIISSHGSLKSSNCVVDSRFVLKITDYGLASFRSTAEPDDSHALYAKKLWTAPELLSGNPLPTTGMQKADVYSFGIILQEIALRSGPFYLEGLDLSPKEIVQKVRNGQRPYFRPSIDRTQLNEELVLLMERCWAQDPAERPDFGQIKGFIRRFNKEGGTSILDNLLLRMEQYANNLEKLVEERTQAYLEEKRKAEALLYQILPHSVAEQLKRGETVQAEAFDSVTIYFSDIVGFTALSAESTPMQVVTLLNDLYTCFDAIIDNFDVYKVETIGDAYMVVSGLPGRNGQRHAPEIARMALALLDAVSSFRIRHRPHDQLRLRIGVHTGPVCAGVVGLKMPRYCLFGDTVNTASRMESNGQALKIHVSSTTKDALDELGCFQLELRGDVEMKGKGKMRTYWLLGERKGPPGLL
As to the kind of experiment: In vitro hNPR2 activity assay (cGMP GloSensor reporter, HEK293). In kind it is cell-based. The following applies: for hNPR2 0% HSA. [EC50% rel CNP]: potency relative to CNP22 (0065); for EC50: 0% HSA, HEK293-hNPR2/GloSensor cells. As for the experimental part: To evaluate the in vitro activity of CNP22 (0065; Chem. 1) and CNP compounds of the invention, they were tested for their ability to induce production of cyclic guanosine monophosphate (cGMP) in reporter cells expressing the human natriuretic peptide receptor 2 (hNPR2).
Cell culture: To produce the reporter cell line, HEK293 (ATCC® CRL-1573™) cells were stably transfected with the pGloSensor-42F reporter plasmid (GloSensor cGMP reporter—luciferase, Promega) and an expression plasmid encoding the hNPR2 receptor. A single cell clone was isolated for the reporter cell line. When reporter cells are exposed to an hNPR2 activating compound, hNPR2 cause production of cGMP. […] Active GloSensor luciferase is able to convert luciferin to oxyluciferin, a process that produces bioluminescence. Upon cell lysis and supply of luciferase substrate, luciferase activity can be quantified by detection of luminescence. Therefore, addition of an hNPR2 activating compound and subsequent addition of detection reagent to reporter cells causes generation of luminescence in a dose dependent manner. […] This measure, also referred to as in vitro potency, is reported for all compounds tested. In all the in vitro activity experiments, CNP22 was used as a positive in-plate control for hNPR2 activation. To reduce inter-assay variation, we also report the potency of each compound relative to the potency of the CNP22 control on each plate.
Procedure: HEK293-hNPR2/GloSensor clone 35 cells were continuously cultured in selection medium (DMEM containing 10% FCS, 1% P/S, 200 μg/mL G418 and 100 μg/mL hygromycin). To perform the assay, cells were detached with TrypLE Express (Gibco #12604013), put through a 70 μm cell strainer, counted and seeded in 30 μL/well assay medium (DMEM without phenol red and with 1% P/S) at 10,000 cells/well in white 384-well plates (Perkin Elmer #6007680) overnight. The following day, test compounds were serial diluted in dilution medium (DMEM without phenol red containing 1% OVA (Sigma #A5505 lot 04M7001V), 0.01% Tween20 (Roche #33766700) and 1% P/S) and 10 μL/well of diluted test compounds were subsequently added to the cells. For each compound, ten different concentrations in the range 0.25 μM-10 μM were tested. After 30 min of incubation at 37° C. and 5% CO2, 40 μL/well Bright-Glo detection reagent (Promega #E2650) was added. […] To determine the in vitro potency or EC50 of each test compound, a four parameter logistic regression was done on the raw data for each test compound using the Python package SciPy optimize. The average EC50 values are listed as “hNPR2 0% HSA. [EC50 (nM)]” in Table 2. A relative potency was calculated by the following expression: EC50 (CNP22 in-plate control)/EC50 (test compound)*100, shown as “hNPR2 0% HSA. [EC50% rel CNP]” in Table 2. A minimum of two replicates was measured for each test compound.

For the compound `CC[C@H](C)[C@@H]1NC(=O)[C@H](CCCNC(=N)N)NC(=O)[C@H](CC(=O)O)NC(=O)[C@H](CC(C)C)NC(=O)[C@H](CCCCN)NC(=O)[C@H](CC(C)C)NC(=O)CNC(=O)[C@H](Cc2ccccc2)NC(=O)[C@@H](NC(=O)CNC(=O)[C@H](CCCCN)NC(=O)[C@H](CO)NC(=O)[C@H](CC(C)C)NC(=O)CN)CSSC[C@@H](C(=O)O)NC(=O)CNC(=O)[C@H](CC(C)C)NC(=O)CNC(=O)[C@H](CO)NC(=O)[C@H](CCSC)NC(=O)[C@H](CO)NC(=O)CNC1=O` [compound 0065], the “hNPR2 0% HSA. [EC50% rel CNP]” value amounted to 100.0%.

Turning to `CC[C@H](C)[C@@H]1NC(=O)[C@H](CCCNC(=N)N)NC(=O)[C@H](CC(=O)O)NC(=O)[C@H](CC(C)C)NC(=O)[C@H](CCCCN)NC(=O)[C@H](CC(C)C)NC(=O)CNC(=O)[C@H](Cc2ccccc2)NC(=O)[C@@H](NC(=O)CNC(=O)[C@H](CCCCN)NC(=O)[C@H](CO)NC(=O)[C@H](CC(C)C)NC(=O)CNC(=O)COCCOCCNC(=O)COCCOCCNC(=O)CC[C@H](NC(=O)CCCCCCCCCCCCCCCCC(=O)O)C(=O)O)CSSC[C@@H](C(=O)O)NC(=O)CNC(=O)[C@H](CC(C)C)NC(=O)CNC(=O)[C@H](CO)NC(=O)[C@H](CCSC)NC(=O)[C@H](CO)NC(=O)CNC1=O` [compound 0089], a half-maximal response (EC50) required 12.3 nM and the “hNPR2 0% HSA. [EC50% rel CNP]” value is on record as 3.1%.

In the case of `CC[C@H](C)[C@@H]1NC(=O)[C@H](CCCNC(=N)N)NC(=O)[C@H](CC(=O)O)NC(=O)[C@H](CC(C)C)NC(=O)[C@H](CCCCN)NC(=O)[C@H](CC(C)C)NC(=O)CNC(=O)[C@H](Cc2ccccc2)NC(=O)[C@@H](NC(=O)CNC(=O)[C@H](CCCCN)NC(=O)[C@H](CO)NC(=O)[C@H](CC(C)C)NC(=O)CNC(=O)COCCOCCNC(=O)COCCOCCNC(=O)COCCOCCNC(=O)COCCOCCNC(=O)COCCOCCNC(=O)COCCOCCNC(=O)COCCOCCNC(=O)COCCOCCNC(=O)CC[C@H](NC(=O)CCCCCCCCCCCCCCCCC(=O)O)C(=O)O)CSSC[C@@H](C(=O)O)NC(=O)CNC(=O)[C@H](CC(C)C)NC(=O)CNC(=O)[C@H](CO)NC(=O)[C@H](CCSC)NC(=O)[C@H](CO)NC(=O)CNC1=O` [compound 0231], the EC50 (as a rule, the concentration giving half of the maximal effect) is 14.5 nM and the “hNPR2 0% HSA. [EC50% rel CNP]” value was 0.8%.

For the compound `CC[C@H](C)[C@@H]1NC(=O)[C@H](CCCNC(=N)N)NC(=O)[C@H](CC(=O)O)NC(=O)[C@H](CC(C)C)NC(=O)[C@H](CCCCN)NC(=O)[C@H](CC(C)C)NC(=O)CNC(=O)[C@H](Cc2ccccc2)NC(=O)[C@@H](NC(=O)CNC(=O)[C@H](CCCCN)NC(=O)[C@H](CO)NC(=O)[C@H](CC(C)C)NC(=O)CNC(=O)[C@H](CCCCN)NC(=O)[C@H](CCCCN)NC(=O)[C@H](CCC(N)=O)NC(=O)[C@H](C)NC(=O)CNC(=O)[C@H](CCC(=O)O)NC(=O)[C@H](Cc2ccc(O)cc2)NC(=O)COCCOCCNC(=O)COCCOCCNC(=O)CC[C@H](NC(=O)CCCCCCCCCCCCCCCCC(=O)O)C(=O)O)CSSC[C@@H](C(=O)O)NC(=O)CNC(=O)[C@H](CC(C)C)NC(=O)CNC(=O)[C@H](CO)NC(=O)[C@H](CC(C)C)NC(=O)[C@H](CO)NC(=O)CNC1=O` [compound 1221], the EC50 came to 1.17 nM and the “hNPR2 0% HSA. [EC50% rel CNP]” value came to 35.9%.

For the compound `CC[C@H](C)[C@@H]1NC(=O)[C@H](CCCNC(=N)N)NC(=O)[C@H](CC(=O)O)NC(=O)[C@H](CC(C)C)NC(=O)[C@H](CCCCN)NC(=O)[C@H](CC(C)C)NC(=O)CNC(=O)[C@H](Cc2ccccc2)NC(=O)[C@@H](NC(=O)CNC(=O)[C@H](CCCCN)NC(=O)[C@H](CO)NC(=O)[C@H](CC(C)C)NC(=O)CNC(=O)[C@H](CCCCN)NC(=O)[C@H](CCCCN)NC(=O)[C@H](CCC(N)=O)NC(=O)[C@H](C)NC(=O)CNC(=O)[C@H](CCC(=O)O)NC(=O)[C@H](CCC(=O)O)NC(=O)COCCOCCNC(=O)COCCOCCNC(=O)CC[C@H](NC(=O)CCCCCCCCCCCCCCCCC(=O)O)C(=O)O)CSSC[C@@H](C(=O)O)NC(=O)CNC(=O)[C@H](CC(C)C)NC(=O)CNC(=O)[C@H](CO)NC(=O)[C@H](CC(C)C)NC(=O)[C@H](CO)NC(=O)CNC1=O` [compound 1222], a half-maximal response (EC50) required 2.94 nM and the “hNPR2 0% HSA. [EC50% rel CNP]” value was determined as 14.3%.

Turning to `CC[C@H](C)[C@@H]1NC(=O)[C@H](CCCNC(=N)N)NC(=O)[C@H](CC(=O)O)NC(=O)[C@H](CC(C)C)NC(=O)[C@H](CCCCN)NC(=O)[C@H](CC(C)C)NC(=O)CNC(=O)[C@H](Cc2ccccc2)NC(=O)[C@@H](NC(=O)CNC(=O)[C@H](CCCCN)NC(=O)[C@H](CO)NC(=O)[C@H](CC(C)C)NC(=O)CNC(=O)[C@H](CCCCN)NC(=O)[C@H](CCC(=O)O)NC(=O)[C@H](CCC(N)=O)NC(=O)[C@H](C)NC(=O)CNC(=O)[C@H](CCC(=O)O)NC(=O)[C@H](Cc2ccc(O)cc2)NC(=O)COCCOCCNC(=O)COCCOCCNC(=O)CC[C@H](NC(=O)CCCCCCCCCCCCCCCCC(=O)O)C(=O)O)CSSC[C@@H](C(=O)O)NC(=O)CNC(=O)[C@H](CC(C)C)NC(=O)CNC(=O)[C@H](CO)NC(=O)[C@H](CC(C)C)NC(=O)[C@H](CO)NC(=O)CNC1=O` [compound 1223] ({C18 diacid-γGlu-AEEA-AEEA}-YEGAQEKGLSKGCFGLKLDRIGSLSGLGC-OH; disulfide 13-29), the EC50 amounted to 1.05 nM and the “hNPR2 0% HSA. [EC50% rel CNP]” value is 6.77%.

In the case of `CC[C@H](C)[C@@H]1NC(=O)[C@H](CCCNC(=N)N)NC(=O)[C@H](CC(=O)O)NC(=O)[C@H](CC(C)C)NC(=O)[C@H](CCCCN)NC(=O)[C@H](CC(C)C)NC(=O)CNC(=O)[C@H](Cc2ccccc2)NC(=O)[C@@H](NC(=O)CNC(=O)[C@H](CO)NC(=O)[C@H](CO)NC(=O)[C@H](CC(C)C)NC(=O)CNC(=O)[C@H](CCCCN)NC(=O)[C@H](CCCCN)NC(=O)[C@H](CCC(N)=O)NC(=O)[C@H](C)NC(=O)CNC(=O)[C@H](CCC(=O)O)NC(=O)[C@H](Cc2ccc(O)cc2)NC(=O)COCCOCCNC(=O)COCCOCCNC(=O)CC[C@H](NC(=O)CCCCCCCCCCCCCCCCC(=O)O)C(=O)O)CSSC[C@@H](C(=O)O)NC(=O)CNC(=O)[C@H](CC(C)C)NC(=O)CNC(=O)[C@H](CO)NC(=O)[C@H](CC(C)C)NC(=O)[C@H](CO)NC(=O)CNC1=O` [compound 1224] ({C18 diacid-γGlu-AEEA-AEEA}-YEGAQKKGLSSGCFGLKLDRIGSLSGLGC-OH; disulfide 13-29), the EC50 amounted to 0.86 nM and the “hNPR2 0% HSA. [EC50% rel CNP]” value stood at 16.9%.
